Data published in article PMC8213057, “Targeting ALK2: An Open Science Approach to Developing Therapeutics for the Treatment of Diffuse Intrinsic Pontine Glioma” (Journal of Medicinal Chemistry, 2020).

Columns and labels:
[1] = target: T1, ULK1 (Homo sapiens, UniProt O75385); assay: biochemical; details: read-out: % enzyme activity, 1 μM; Run 1, Run 2
T1 sequence (O75385 1-1050): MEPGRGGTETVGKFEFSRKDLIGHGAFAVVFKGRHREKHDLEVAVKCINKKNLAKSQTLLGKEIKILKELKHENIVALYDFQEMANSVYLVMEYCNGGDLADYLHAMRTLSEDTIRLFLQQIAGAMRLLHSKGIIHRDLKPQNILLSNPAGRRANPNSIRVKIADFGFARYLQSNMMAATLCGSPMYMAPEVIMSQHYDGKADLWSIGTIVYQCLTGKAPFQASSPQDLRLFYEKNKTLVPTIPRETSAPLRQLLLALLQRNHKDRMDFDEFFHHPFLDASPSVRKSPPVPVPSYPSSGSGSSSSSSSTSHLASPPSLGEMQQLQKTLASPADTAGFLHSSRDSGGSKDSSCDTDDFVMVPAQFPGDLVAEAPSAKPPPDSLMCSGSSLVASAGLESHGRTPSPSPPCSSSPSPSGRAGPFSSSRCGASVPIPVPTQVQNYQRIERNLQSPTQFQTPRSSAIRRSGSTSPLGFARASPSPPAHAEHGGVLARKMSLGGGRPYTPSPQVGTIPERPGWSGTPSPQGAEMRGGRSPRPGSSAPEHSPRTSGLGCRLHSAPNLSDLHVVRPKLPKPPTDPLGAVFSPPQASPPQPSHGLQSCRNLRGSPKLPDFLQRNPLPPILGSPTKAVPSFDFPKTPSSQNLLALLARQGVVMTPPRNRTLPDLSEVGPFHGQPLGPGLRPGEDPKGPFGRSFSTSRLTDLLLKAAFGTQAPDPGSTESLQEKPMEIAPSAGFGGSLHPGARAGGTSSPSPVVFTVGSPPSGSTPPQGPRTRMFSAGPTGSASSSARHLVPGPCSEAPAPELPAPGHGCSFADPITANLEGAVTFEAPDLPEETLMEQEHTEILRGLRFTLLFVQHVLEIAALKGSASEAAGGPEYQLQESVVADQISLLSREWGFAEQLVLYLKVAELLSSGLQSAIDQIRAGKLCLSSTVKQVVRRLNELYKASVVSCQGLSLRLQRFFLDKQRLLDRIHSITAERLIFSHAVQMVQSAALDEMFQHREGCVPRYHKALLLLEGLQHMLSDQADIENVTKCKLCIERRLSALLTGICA

[2] = target: c-Src (Homo sapiens, UniProt P12931); assay: biochemical; details: read-out: % enzyme activity, 1 μM; Run 1, Run 2
Chain of c-Src (P12931 whole entry): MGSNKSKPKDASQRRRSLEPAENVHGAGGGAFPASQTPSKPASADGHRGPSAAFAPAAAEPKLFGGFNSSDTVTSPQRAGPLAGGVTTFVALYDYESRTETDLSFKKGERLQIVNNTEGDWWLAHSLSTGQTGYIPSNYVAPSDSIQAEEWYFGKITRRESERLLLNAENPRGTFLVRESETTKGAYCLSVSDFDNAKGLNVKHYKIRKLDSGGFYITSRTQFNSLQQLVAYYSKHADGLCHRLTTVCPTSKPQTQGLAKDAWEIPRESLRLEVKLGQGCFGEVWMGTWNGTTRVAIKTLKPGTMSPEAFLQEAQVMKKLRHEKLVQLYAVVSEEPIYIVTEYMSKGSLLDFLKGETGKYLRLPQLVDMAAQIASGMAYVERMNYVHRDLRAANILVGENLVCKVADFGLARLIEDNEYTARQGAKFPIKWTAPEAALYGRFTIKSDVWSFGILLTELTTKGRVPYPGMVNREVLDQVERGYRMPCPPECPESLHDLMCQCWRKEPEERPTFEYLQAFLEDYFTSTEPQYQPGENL

[3] = target: T2, SGK3/SGKL (Homo sapiens, UniProt Q96BR1); details: 1 μM; Run 1, Run 2
T2 sequence (Q96BR1 1-496): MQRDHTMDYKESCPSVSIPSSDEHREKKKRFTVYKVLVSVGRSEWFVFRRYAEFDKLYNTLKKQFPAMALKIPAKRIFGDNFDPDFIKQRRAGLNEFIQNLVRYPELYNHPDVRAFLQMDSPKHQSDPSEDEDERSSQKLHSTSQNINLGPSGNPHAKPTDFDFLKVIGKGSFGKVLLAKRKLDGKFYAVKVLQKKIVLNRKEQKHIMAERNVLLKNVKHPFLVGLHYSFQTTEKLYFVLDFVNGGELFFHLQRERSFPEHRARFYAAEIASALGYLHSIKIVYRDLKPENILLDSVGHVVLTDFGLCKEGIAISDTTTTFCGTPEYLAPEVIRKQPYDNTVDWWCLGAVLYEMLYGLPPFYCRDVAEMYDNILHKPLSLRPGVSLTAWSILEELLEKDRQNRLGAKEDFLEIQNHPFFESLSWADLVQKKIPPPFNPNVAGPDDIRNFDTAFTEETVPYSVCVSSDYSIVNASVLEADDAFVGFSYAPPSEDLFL

[4] = target: T3, ZAP70 (Homo sapiens, UniProt P43403); details: 1 μM; Run 1, Run 2
T3 sequence (P43403 1-619): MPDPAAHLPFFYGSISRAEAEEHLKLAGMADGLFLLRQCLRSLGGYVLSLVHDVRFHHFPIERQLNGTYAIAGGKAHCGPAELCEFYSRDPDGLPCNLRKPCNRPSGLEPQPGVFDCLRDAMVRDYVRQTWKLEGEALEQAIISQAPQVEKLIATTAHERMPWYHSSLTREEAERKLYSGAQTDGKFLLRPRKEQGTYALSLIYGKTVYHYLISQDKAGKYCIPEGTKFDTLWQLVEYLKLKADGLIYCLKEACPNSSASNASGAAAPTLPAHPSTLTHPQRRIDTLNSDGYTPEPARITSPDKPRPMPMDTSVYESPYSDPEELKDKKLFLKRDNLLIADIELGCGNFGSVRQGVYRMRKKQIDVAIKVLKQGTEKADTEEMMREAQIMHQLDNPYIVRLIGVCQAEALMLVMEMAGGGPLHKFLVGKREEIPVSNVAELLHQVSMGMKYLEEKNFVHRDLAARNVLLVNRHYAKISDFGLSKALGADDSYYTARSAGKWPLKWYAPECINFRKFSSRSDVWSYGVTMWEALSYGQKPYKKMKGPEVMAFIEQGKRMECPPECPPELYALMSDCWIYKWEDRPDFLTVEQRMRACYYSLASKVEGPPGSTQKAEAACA

[5] = target: T4, ARK5/NUAK1 (Homo sapiens, UniProt O60285); assay: biochemical; details: read-out: % enzyme activity, 1 μM; Run 1, Run 2
T4 sequence (O60285 1-661): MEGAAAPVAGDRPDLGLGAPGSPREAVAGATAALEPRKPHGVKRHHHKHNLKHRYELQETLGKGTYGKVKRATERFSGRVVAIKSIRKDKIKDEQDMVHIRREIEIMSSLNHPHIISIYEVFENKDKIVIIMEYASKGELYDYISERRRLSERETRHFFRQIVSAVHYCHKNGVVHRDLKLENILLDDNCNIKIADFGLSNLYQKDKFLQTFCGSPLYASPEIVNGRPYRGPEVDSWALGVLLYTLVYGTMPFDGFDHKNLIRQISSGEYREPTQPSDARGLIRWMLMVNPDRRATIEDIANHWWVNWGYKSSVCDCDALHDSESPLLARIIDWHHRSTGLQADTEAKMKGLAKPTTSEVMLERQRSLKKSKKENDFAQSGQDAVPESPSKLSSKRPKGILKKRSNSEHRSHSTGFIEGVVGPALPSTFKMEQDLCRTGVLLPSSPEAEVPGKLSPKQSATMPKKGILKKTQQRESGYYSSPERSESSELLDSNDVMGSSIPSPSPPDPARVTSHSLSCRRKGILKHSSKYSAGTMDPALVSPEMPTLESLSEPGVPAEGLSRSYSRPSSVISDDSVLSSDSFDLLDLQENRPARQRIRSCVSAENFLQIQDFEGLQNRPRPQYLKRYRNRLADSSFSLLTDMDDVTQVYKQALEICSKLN

[6] = target: STK38L/NDR2 (Homo sapiens, UniProt Q9Y2H1); details: 1 μM; Run 1, Run 2
Chain of STK38L/NDR2 (Q9Y2H1 whole entry): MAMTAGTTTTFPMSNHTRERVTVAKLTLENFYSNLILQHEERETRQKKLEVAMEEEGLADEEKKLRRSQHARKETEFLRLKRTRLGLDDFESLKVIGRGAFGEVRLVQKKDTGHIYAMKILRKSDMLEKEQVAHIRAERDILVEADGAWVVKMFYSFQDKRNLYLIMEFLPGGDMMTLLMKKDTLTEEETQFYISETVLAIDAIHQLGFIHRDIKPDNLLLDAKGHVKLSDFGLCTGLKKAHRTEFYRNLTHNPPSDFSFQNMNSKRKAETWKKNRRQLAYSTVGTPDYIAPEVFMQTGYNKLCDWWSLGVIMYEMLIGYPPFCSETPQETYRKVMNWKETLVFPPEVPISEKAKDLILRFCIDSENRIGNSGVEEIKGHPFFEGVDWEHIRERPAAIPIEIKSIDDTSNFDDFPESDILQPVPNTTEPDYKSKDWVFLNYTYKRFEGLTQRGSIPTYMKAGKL

Row | Structure (SMILES) | remaining activity at 1 µM [1] | remaining activity at 1 µM [2] | % enzyme activity [3] | % enzyme activity [4] | remaining activity at 1 µM [5] | % enzyme activity [6]
1 | COc1cc(-c2cncc(-c3ccc(N4CCN(C)CC4)cc3)c2C)cc(F)c1C(N)=O [Compound 26a, 2-Fluoro-6-methoxy-4-(4-methyl-5-(4-(4-methylpiperazin-1-yl)phenyl)pyridin-3-yl)benzamide] | 84.7% | 96.6% | 99.35% | 94.79% | 97.6% | 98.69%
2 | COc1cc(-c2cncc(-c3ccc(N4C[C@@H](C)N(C)[C@@H](C)C4)cc3)c2C)cc(F)c1C(N)=O [Compound 26c, 2-Fluoro-6-methoxy-4-(4-methyl-5-(4-((3R,5S)-3,4,5-trimethylpiperazin-1-yl)phenyl)pyridin-3-yl)benzamide] | 89.8% | 100% | 93.33% | 98.47% | 96% | 102.97%
